These are literature values, as cited in PMC9851200, “Multiparameter phenotypic screening for endogenous TFEB and TFE3 translocation identifies novel chemical series modulating lysosome function” (Autophagy, 2022).

Holding throughout (set-up): method as in original PKIS2 published data
Series [1] addresses kinases (KINOMEscan panel) (Homo sapiens, UniProt Q16512). As to conditions: Published KINOMEscan; ref original PKIS2 published data; cited from earlier work.
The target of series [2] is T1, kinases (KINOMEscan panel) (Homo sapiens, UniProt O14965).
T1 sequence (O14965 1-403): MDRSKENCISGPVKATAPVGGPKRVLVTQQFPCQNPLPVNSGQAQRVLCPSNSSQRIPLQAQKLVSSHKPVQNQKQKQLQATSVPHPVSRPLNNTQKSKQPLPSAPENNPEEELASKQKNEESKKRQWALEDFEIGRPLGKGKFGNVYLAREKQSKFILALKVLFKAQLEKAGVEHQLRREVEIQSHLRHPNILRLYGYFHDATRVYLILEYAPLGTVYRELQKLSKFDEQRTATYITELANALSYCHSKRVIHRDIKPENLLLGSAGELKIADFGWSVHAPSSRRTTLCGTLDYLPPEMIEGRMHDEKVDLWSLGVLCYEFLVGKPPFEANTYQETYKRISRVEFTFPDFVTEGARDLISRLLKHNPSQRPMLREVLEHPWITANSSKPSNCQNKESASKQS
The note with it: Published KINOMEscan; ref original PKIS2 published data; cited from earlier work.

In series [3] the target is kinases (KINOMEscan panel) (Homo sapiens, UniProt Q96NX5). The note with it: CAMK1G; Published KINOMEscan; ref original PKIS2 published data; cited from earlier work.
kinases (KINOMEscan panel) (Homo sapiens, UniProt Q96NX5), sequence (Q96NX5 whole entry): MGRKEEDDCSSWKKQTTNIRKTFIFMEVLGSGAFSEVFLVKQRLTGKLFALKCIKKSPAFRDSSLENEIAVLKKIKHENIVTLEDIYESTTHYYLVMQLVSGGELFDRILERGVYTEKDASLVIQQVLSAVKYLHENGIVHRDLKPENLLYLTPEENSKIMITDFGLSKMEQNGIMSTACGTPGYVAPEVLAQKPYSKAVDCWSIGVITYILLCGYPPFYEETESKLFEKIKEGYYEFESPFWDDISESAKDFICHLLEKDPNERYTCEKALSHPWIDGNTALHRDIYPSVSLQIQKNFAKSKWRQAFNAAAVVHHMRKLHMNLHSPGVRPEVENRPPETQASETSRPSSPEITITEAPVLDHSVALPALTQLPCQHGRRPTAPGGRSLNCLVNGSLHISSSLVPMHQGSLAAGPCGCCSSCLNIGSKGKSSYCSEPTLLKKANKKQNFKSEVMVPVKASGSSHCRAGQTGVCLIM
Series [4] addresses kinases (KINOMEscan panel) (Homo sapiens, UniProt O75716). As to conditions: kinase STK16; Published KINOMEscan; ref original PKIS2 published data; cited from earlier work.
Series [5] addresses kinases (KINOMEscan panel) (Homo sapiens, UniProt Q86Z02). As to conditions: HIPK1; Published KINOMEscan; ref original PKIS2 published data; cited from earlier work.
The target in series [6] is T2, kinases (KINOMEscan panel) (Homo sapiens, UniProt Q96PY6).
T2 sequence (Q96PY6 1-1258): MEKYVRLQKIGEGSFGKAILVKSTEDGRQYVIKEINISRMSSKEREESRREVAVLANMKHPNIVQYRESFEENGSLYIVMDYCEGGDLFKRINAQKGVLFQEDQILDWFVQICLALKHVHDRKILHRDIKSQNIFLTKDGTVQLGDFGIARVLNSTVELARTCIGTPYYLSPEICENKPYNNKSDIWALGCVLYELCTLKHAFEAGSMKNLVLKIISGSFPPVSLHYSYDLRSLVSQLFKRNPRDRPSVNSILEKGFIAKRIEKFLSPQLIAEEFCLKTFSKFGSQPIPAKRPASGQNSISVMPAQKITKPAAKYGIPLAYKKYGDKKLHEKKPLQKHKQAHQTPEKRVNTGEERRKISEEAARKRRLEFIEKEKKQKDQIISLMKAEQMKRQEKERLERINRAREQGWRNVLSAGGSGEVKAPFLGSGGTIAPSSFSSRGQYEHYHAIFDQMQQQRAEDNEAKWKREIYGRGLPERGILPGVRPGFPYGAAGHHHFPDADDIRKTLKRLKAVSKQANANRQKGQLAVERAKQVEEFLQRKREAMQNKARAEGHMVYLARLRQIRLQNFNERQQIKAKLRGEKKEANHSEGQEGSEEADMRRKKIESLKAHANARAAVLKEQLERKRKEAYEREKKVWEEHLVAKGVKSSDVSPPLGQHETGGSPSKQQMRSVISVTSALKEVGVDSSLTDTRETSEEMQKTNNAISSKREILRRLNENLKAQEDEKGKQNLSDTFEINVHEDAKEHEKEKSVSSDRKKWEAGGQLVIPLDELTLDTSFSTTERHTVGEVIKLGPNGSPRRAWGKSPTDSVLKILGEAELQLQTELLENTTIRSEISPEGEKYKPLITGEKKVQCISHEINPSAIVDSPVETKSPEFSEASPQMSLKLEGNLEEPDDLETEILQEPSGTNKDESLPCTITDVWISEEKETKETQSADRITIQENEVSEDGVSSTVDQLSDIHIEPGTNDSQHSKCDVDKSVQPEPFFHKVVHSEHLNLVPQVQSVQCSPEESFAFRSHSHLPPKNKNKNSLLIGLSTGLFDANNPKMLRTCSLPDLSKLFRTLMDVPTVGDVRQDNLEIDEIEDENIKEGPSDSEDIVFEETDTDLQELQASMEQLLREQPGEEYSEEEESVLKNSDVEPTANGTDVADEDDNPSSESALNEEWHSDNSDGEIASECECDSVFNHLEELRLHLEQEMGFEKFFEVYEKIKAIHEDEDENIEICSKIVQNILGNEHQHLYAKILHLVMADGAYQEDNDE
The note with it: kinase NEK1; Published KINOMEscan; ref original PKIS2 published data; cited from earlier work.

For series [7], the target named is kinases (KINOMEscan panel) (Homo sapiens, UniProt P07332). The note with it: kinase FES; Published KINOMEscan; ref original PKIS2 published data; cited from earlier work.
kinases (KINOMEscan panel) (Homo sapiens, UniProt P07332), sequence (P07332 whole entry): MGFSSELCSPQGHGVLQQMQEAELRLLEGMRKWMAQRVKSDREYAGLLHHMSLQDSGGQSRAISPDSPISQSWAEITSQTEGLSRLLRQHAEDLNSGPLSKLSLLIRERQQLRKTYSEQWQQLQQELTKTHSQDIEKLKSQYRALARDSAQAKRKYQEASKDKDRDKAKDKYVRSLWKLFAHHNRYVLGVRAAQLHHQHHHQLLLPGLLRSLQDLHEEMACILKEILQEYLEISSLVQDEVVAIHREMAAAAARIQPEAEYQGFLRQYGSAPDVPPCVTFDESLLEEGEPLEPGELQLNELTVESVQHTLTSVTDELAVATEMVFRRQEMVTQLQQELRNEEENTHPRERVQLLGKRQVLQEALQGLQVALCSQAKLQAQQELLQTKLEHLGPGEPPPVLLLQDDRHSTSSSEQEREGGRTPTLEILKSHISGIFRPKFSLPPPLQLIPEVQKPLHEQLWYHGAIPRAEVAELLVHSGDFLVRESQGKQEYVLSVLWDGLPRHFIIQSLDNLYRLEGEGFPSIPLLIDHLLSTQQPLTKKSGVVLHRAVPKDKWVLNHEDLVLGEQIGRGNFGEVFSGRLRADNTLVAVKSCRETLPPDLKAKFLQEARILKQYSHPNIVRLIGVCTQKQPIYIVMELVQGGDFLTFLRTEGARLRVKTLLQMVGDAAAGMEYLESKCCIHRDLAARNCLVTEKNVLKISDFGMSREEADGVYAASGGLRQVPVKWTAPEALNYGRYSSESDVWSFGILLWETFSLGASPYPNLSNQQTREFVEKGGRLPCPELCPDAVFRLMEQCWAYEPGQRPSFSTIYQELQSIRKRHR
Series [8] addresses kinases (KINOMEscan panel) (Homo sapiens, UniProt Q9BVS4). As to conditions: RIOK2; Published KINOMEscan; ref original PKIS2 published data; cited from earlier work.

Structures are written as SMILES.

kinases (KINOMEscan panel) (Homo sapiens, UniProt Q86Z02), sequence (Q86Z02 whole entry): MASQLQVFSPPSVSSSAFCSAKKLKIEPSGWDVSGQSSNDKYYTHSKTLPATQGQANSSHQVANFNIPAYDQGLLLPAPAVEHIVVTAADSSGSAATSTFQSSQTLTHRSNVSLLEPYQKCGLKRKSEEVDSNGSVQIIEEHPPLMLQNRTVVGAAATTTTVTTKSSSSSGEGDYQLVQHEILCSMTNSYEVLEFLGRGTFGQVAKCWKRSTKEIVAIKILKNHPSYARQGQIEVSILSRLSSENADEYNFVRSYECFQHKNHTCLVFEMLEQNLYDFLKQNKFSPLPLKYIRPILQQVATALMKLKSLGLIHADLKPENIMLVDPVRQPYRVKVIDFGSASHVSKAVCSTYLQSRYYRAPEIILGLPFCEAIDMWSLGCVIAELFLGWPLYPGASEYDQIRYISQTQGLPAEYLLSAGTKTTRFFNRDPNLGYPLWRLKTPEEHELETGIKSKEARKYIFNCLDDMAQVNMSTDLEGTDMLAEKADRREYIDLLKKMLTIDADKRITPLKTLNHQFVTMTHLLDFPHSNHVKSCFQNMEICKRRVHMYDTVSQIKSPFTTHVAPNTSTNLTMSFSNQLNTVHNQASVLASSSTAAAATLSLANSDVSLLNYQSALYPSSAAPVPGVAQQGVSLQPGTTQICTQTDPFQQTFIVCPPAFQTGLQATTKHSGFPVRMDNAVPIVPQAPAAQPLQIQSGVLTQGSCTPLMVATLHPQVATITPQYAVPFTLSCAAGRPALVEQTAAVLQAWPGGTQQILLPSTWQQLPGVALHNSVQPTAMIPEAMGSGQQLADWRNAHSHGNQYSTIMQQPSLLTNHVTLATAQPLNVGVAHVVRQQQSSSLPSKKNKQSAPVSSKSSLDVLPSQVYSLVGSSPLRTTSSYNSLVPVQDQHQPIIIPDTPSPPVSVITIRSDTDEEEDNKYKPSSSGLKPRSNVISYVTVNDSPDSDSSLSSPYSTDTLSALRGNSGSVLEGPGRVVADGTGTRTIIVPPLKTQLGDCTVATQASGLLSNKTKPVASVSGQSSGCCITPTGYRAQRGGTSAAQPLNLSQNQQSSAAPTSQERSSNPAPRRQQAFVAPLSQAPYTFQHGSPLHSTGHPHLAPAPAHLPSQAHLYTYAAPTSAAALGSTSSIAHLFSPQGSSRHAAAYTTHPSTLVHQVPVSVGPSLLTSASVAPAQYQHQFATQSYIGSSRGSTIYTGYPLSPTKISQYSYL
kinases (KINOMEscan panel) (Homo sapiens, UniProt Q9BVS4), sequence (Q9BVS4 whole entry): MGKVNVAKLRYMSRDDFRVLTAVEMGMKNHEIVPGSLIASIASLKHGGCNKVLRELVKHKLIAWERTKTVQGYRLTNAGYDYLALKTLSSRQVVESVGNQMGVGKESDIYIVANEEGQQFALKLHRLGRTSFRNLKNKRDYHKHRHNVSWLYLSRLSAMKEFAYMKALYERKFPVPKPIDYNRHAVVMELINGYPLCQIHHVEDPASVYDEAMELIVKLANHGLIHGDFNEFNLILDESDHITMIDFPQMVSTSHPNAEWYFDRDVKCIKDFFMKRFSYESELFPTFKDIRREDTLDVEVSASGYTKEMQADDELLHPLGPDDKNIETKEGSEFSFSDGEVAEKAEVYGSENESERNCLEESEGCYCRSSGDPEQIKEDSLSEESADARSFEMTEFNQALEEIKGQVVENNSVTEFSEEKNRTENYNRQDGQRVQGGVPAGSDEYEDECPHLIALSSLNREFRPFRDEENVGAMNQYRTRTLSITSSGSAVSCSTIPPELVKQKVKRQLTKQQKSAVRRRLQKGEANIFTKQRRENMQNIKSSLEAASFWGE
kinases (KINOMEscan panel) (Homo sapiens, UniProt O75716), sequence (O75716 whole entry): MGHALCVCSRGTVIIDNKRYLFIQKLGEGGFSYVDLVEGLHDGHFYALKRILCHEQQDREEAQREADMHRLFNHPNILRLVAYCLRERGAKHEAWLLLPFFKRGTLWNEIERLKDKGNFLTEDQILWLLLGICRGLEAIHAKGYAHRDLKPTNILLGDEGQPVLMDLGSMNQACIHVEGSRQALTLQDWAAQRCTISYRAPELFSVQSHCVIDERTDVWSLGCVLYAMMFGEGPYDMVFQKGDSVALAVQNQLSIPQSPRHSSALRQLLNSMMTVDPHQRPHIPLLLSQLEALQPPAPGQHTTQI
kinases (KINOMEscan panel) (Homo sapiens, UniProt Q16512), sequence (Q16512 whole entry): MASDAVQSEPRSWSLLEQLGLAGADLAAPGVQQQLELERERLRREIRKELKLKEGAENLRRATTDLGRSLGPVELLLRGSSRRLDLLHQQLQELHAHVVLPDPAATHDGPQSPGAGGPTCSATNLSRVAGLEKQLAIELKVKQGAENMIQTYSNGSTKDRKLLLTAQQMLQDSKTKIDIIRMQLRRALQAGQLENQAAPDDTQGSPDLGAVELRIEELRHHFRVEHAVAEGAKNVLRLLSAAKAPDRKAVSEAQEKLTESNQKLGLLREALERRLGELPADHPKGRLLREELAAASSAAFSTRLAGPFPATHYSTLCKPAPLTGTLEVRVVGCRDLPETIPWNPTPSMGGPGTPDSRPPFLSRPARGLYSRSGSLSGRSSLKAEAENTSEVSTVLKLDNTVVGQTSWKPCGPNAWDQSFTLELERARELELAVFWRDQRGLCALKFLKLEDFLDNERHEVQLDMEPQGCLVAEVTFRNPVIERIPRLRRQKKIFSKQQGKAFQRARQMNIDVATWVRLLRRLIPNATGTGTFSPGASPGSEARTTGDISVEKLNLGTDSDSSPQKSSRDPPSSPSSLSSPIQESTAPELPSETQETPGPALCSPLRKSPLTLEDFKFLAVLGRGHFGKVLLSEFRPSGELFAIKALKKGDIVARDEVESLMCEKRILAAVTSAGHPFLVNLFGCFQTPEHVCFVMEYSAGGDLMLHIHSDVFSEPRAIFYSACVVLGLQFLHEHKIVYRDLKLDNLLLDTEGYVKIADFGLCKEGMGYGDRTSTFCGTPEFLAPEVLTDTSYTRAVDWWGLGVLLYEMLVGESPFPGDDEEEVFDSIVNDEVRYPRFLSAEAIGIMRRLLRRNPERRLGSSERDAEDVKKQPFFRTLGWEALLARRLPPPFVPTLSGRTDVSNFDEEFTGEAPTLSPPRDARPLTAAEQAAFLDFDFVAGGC

As to `Cc1cccc(-c2nc(Nc3ccncc3)c3ccccc3n2)n1` [NK215], the “KINOMEscan PKN1” value in series [1] is 0. The “KINOMEscan AURKA” value in series [2] was 0. In addition, the “KINOMEscan CAMK1G” value in series [3] is reported as 0. Moreover, the “KINOMEscan STK16” value in series [4] was 7. The “KINOMEscan HIPK1” value in series [5] is given as 41. The “KINOMEscan NEK1” value in series [6] is 0. Besides, the “KINOMEscan FES” value in series [7] is given as 13. In addition, the “KINOMEscan RIOK2” value in series [8] is 0.
